Data reported in ChEMBL document CHEMBL1134595, “Exploration of novel aryl binding sites of farnesyltransferase using molecular modeling and benzophenone-based farnesyltransferase inhibitors” (J Med Chem, 2001).

Molecular target: T1, Farnesyltransferase (Saccharomyces cerevisiae S288c, UniProt P22007+P29703)
T1 sequence (P29703 whole entry): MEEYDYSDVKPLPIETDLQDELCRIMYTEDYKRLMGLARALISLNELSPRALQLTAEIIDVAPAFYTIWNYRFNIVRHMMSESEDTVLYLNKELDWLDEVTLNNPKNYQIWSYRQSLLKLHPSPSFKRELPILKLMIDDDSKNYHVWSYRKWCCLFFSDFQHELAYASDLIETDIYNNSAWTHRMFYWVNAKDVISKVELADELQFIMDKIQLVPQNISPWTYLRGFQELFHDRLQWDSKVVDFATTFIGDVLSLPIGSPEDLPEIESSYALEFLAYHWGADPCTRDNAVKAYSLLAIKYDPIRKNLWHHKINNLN
T1 sequence (P22007 whole entry): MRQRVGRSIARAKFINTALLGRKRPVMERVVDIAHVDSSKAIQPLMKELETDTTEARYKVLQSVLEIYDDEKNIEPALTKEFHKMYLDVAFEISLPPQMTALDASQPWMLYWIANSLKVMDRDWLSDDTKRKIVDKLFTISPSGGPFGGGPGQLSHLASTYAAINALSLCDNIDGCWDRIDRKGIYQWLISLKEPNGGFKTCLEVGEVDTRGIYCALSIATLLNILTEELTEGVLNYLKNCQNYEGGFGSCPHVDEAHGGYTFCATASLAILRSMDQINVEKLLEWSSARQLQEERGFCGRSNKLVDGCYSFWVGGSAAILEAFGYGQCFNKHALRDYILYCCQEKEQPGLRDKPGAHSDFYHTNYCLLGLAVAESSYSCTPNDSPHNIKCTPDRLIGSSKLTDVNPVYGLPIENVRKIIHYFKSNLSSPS
Experiment: Inhibitory activity against yeast farnesyltransferase
Assay type: protein-complex assay

IC50 [nM] | SMILES
1100 | Cc1ccc(CC(=O)Nc2ccc(NC(=O)CCCCCc3ccccc3)cc2C(=O)c2ccccc2)cc1
2000 | Cc1ccc(CC(=O)Nc2ccc(NC(=O)Cc3ccccc3)cc2C(=O)c2ccccc2)cc1
390 | Cc1ccc(CC(=O)Nc2ccc(NC(=O)CCCCc3ccccc3)cc2C(=O)c2ccccc2)cc1
530 | Cc1ccc(CC(=O)Nc2ccc(NC(=O)CCCc3ccccc3)cc2C(=O)c2ccccc2)cc1
6000 | Cc1ccc(CC(=O)Nc2ccc(NC(=O)c3ccccc3)cc2C(=O)c2ccccc2)cc1
2000 | Cc1ccc(CC(=O)Nc2ccc(NC(=O)CCc3ccccc3)cc2C(=O)c2ccccc2)cc1
925 | Cc1ccc(CC(=O)Nc2ccc(NC(=O)/C=C/c3ccc(-c4ccc(Br)cc4)o3)cc2C(=O)c2ccccc2)cc1
6300 | Cc1ccc(CC(=O)Nc2ccc(NC(=O)/C=C/c3ccc(-c4ccc(Cl)cc4)o3)cc2C(=O)c2ccccc2)cc1

Further lines, the compound ahead of its results:

SMILES | IC50 [nM]
CSCC[C@H](NC(=O)c1ccc(COc2cccnc2)cc1-c1ccccc1C)C(=O)O | 0.4
CSCC[C@H](NC(=O)c1ccc(COCc2ccc(-c3ccccc3)o2)cc1-c1ccccc1)C(=O)O | 6
CCC(C)[C@@H](CN(CC(=O)N[C@@H](CCSC)C(=O)O)Cc1cccc2ccccc12)NC(=O)CC1CN(Cc2ccc(C#N)cc2)C=N1 (some centres undefined) | 12
CSCC[C@H](NC(=O)c1ccc(CN(Cc2ccccc2)c2cccnc2)cc1-c1ccccc1C)C(=O)O | 0.1
CCC(C)[C@@H](CN(CC(=O)N[C@@H](CCSC)C(=O)O)Cc1cccc2ccccc12)NC(=O)CSCc1ccc(C#N)cc1 (some centres undefined) | 5.4
Cc1ccc(CC(=O)Nc2ccc(NC(=O)/C=C/c3csc(-c4ccc([N+](=O)[O-])cc4)n3)cc2C(=O)c2ccccc2)cc1 | 455
